# Patent US20260355217A1, “HPK1 INHIBITOR, PREPARATION METHOD THEREFOR, AND USE THEREOF” (Beijing Earthwise Technology Co., Ltd., priority 2022, published 2026)
# Columns and labels:
# HPK1 = HPK1 (Homo sapiens, UniProt Q92918); test: HPK1 HTRF Kinase Assay; format: biochemical; conditions: 1000 μM ATP, 50 nM HPK1, STK1 substrate, 120 minutes
# Protocol: Assay Example 2 HPK1 HTRF Kinase Assay
# The assay was performed in a 384-well plate (Greier, Cat #784075) with a total reaction system of 20 μL. 1×kinase buffer (5*enzyme buffer, 5 mM MgCl2, 0.1% BSA, 1 mM DTT), […] and 1000 µM ATP, and 10 μL of Detection Mix (0.25 nM STK antibody, 62.5 nM XL665) were included in the reaction mixture. The reaction was initiated by adding 50 nM HPK1. After 120 minutes of reaction, the assay was terminated by adding 10 μL of Detection Mix. After being incubated at room temperature for 60 minutes, the assay plate was read by EnVision multi-function microplate reader to read the FRET signal (the ratio of HTRF 665/615 was calculated from the readings at 665 nm and 615 nm).
# The ratio of the signal at 665 nm to the signal at 615 nm was converted to the percentage of inhibition. Inhibition %=(maximum value−sample value)/(maximum value−minimum value)×100. The minimum value refers to the value measured in a well without enzyme but with DMSO and substrate, and the maximum value refers to the value measured in a well with DMSO, enzyme and substrate. IC50 values were calculated by XLFit (version 5.3.1.3) in Excel. Equation: Y=Bottom+(Top−Bottom)/(1+(IC50/X)^HillSlope).
# [1] = test system: human Pan T cells (IL-2 release); test: Human Pan T Cell IL-2 ELISA; format: cell-based; conditions: Homo sapiens, T-cell, 48 h, Anti-CD3/Anti-CD28, IL-2 ELISA
# Protocol: Assay Example 4 Human Pan T Cell IL-2 ELISA
# A compound was dissolved in DMSO to 10 mM, and then diluted three-fold with DMSO to 9 dosages in a 96-well plate. Then, 10 μL of the diluted compound sample was transferred to a 96-well plate with 90 μL of cell culture medium, and the plate was shaken for 5 minutes. Then, 5 μL of the diluted compound sample was transferred to a 96-well plate with 120 μL of cell culture medium, and the plate was shaken for 5 minutes. According to the experimental design diagram, 50 μL of the diluted compound sample was transferred to a cell plate. Final concentrations of the compound in this assay were 10000.00, 5000, 2500, 1250, 625, 312.5, 156.25, 78.125 and 39.063 nM.
# The assay was conducted in a 96-well plate. On the first day of the assay, Anti-CD3 was added to the 96-well plate and incubated in a 4 °C refrigerator overnight. On the second day of the assay, human Pan T cells were recovered, centrifuged and counted. The cell density was adjusted to 1*10^6 cells/ml. Then, 100 μL of cells were added to the 96-well plate washed with PBS and added with Anti-CD3; according to the experimental design diagram, 50 μL of diluted Anti-CD28 and 50 μL of the diluted compound were added to each well, centrifuged, and the cell plate was placed and incubated in an incubator for 48 hours; after 48 hours, the plate was centrifuged and the supernatant was collected for IL-2 ELISA.
# The signal value of light absorption was converted into a multiple. Multiple=sample value/the average value of control wells. The average value of control wells refers to the value measured in wells with DMSO added. EC50 values were calculated by XLFit (version 5.3.1.3) in Excel. Equation: Y=Bottom+(Top−Bottom)/(1+(EC50/X)^HillSlope).
# [2] = biological target: T1, pSLP76 (Phospho-SLP-76 (Ser376)), Jurkat E6-1 cells (Homo sapiens, UniProt Q92918); test: Phospho-SLP-76 (Ser376) HTRF Assay in Jurkat E6-1 cells; format: cell-based; conditions: compound 4 hours, then anti-CD3 20 minutes
# T1 construct: read-out phospho-SLP-76 (Ser376) HTRF
# T1 sequence (Q92918 whole entry): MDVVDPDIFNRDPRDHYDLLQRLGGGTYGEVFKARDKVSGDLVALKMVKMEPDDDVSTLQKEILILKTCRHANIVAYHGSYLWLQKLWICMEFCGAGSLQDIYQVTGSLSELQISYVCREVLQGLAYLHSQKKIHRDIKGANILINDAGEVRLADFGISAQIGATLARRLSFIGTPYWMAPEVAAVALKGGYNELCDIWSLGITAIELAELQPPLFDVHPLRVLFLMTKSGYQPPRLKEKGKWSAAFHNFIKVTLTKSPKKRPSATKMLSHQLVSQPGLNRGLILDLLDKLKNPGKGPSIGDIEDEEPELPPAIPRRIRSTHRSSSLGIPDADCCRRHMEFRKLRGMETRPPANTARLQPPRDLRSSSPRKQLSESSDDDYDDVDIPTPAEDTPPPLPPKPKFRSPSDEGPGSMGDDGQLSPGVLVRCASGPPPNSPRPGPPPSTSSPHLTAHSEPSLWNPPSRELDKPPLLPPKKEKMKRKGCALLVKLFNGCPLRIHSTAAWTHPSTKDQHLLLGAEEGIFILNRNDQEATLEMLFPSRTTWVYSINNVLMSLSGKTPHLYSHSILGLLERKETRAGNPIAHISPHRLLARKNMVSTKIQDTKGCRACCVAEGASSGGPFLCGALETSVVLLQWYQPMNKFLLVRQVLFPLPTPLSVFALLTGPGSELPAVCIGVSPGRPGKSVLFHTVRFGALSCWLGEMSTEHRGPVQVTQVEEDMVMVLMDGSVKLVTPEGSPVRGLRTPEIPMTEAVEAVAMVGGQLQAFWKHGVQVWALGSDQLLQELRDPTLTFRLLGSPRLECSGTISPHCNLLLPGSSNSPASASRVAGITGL
# Protocol: Assay Example 3 Phospho-SLP-76 (Ser376) HTRF Assay
# A compound was dissolved in DMSO to 10 mM, and then diluted three-fold with DMSO to 10 dosages in a 96-well plate. Then, 3 μL of the diluted compound sample was transferred to a 96-well plate with 97 μL of cell culture medium, and the plate was shaken for 5 minutes. According to the experimental design diagram, 7.5 μL of the diluted compound sample was transferred to a cell plate. Final concentrations of the compound in this assay were 10000.00, 3333.33, 1111.11, 370.37, 123.46, 41.15, 13.72, 4.57, 1.52 and 0.51 nM.
# In this assay, the density of Jurkat E6-1 cells was maintained between 3*10^5 to 3*10^6 cells/mL. The cell culture was replaced with fresh culture medium every 2 to 3 days (depending on the cell density). 30 μL of Jurkat E6-1 (300,000 cells) was added to a 96-well plate and incubated in a 37 °C incubator for 1 hour. Then, according to the experimental design diagram, compounds (6×, 7.5 μL) were added to treat the cells for 4 hours, respectively. After 4 hours, purified anti-human anti-CD3 antibodies (6×, 7.5 μL) were added to treat the cells for 20 minutes. After 20 minutes, 15 μL of cell lysis buffer (4×) was added, and the cells were lysed at 25 °C with shaking (250 rpm) for 1 hour. Then, according to the experimental design diagram, 16 μL of cell lysate was transferred to a 384-well plate using a pipette. After the transfer, 4 μL of antibody detection mixture was added. After being placed at room temperature overnight, the plate was read by EnVision multi-function microplate reader to read the FRET signal (the ratio of HTRF 665/615 was calculated from the readings at 665 nm and 615 nm).
# The ratio of the signal at 665 nm to the signal at 615 nm was converted to the percentage of inhibition. Inhibition %=(maximum value−sample value)/(maximum value−minimum value)×100. The minimum value refers to the signal value of a well without anti-CD3 antibody stimulation during the treatment of cells, and the maximum value refers to the signal value of a well with anti-CD3 antibody stimulation but without the compound during the treatment of cells. IC50 values were calculated by XLFit (version 5.3.1.3) in excel. Equation: Y=Bottom+(Top−Bottom)/(1+(IC50/X)^HillSlope).
# HPK1, sequence (Q92918 whole entry): as above
compound,measurement,setting,value
COc1cccn2c(-c3cc4c(c5c3CCNC5=O)Nc3ccc(N5CCOCC5)cc3C4(C)C)cnc12 [Example 13],IC50,HPK1,9.32 nM
same,EC50,[1],3.12 nM
same,IC50,[2],24.4 nM
CC1(C)c2cc(N3CCOCC3)ccc2Nc2c1cc(-c1cncc(N3CCOCC3)c1)c1c2C(=O)NC1 [Example 85],IC50,HPK1,36.2 nM
same,EC50,[1],69.4 nM
